Legend:
[1] = tested on: Caco-2 cells; test: Caco-2 permeability; assay type: in vitro ADME, human
From the text: H. Determination of Caco-2 Permeability
The Caco-2 cell line, derived from a human colorectal carcinoma, has become an established in vitro model for the prediction of drug absorption across the human intestine. (Sun, D.; Yu, L. X.; Hussain, M. A.; Wall, D. A.; Smith, R. L.; Amidon, G. L. Curr. Opin. Drug Discov. Devel. 2004, 7, 75-85; Bergstrom, C. A. Basic Clin. Pharmacol. Toxicol. 2005, 96, 156-61; Balimane, P. V.; Han, Y. H.; Chong, S. AAPS J 2006, 8, E1-13; Shah, P.; Jogani, V.; Bagchi, T.; Misra, A. Biotechnol. Prog. 2006, 22, 186-198) When cultured on semi-permeable membranes, Caco-2 cells differentiate into a highly functionalized epithelial barrier with remarkable morphological and biochemical similarity to the small intestinal columnar epithelium. Fully differentiated cell monolayers can be used to assess the membrane transport properties of novel compounds.
Permeability across the Caco-2 cell layer was determined by growing the cells on a membrane placed between two (donor and acceptor) chambers. Drug candidates are typically added to the apical (A) side of the cell layer and their appearance in the basolateral (B) side is measured over incubation time. Permeability in this direction represents intestinal absorption. Permeability may also be determined from the basolateral to the apical side of the Caco-2 cell. […]
Permeability (10 μM) for compounds of the invention in the apical to basolateral and basolateral to apical direction were tested in duplicate. Samples will be collected from the donor and acceptor chambers at the beginning (0 min) and following 60 min of incubation at 37° C. and stored frozen at −70° C. until bioanalysis. Samples for each test compound generated from the Caco-2 permeability assay were further analyzed by LC-MS-MS. The permeability of [^3H]-mannitol and [^3H]-propranolol were determined in parallel as controls.
The permeability coefficient (Papp) of each compound and radiolabeled standard was determined using the following equation:
[formula] where dQ/dT represents the permeability rate, Ci denotes the initial concentration in the donor compartment, and A represents the surface area of the filter. Ci is determined from the mean concentration of duplicate samples taken prior to addition to the donor compartment. Permeability rates were calculated by plotting the cumulative amount of compound measured in the acceptor compartment over time and determining the slope of the line by linear regression analysis. The duplicate and mean apical to basolateral and basolateral to apical Papp's were reported for each compound and standard.

[2] = tested on: irinotecan-induced CID in dogs; test: Dog model of chemotherapy-induced diarrhea; assay type: in vivo; conditions: FIG. 19
From the text: The objective of this study was to determine the efficacy of representative macrocyclic compounds of the present invention in chemotherapy-induced diarrhea (CID) following intravenous administration to the male beagle dog (Canis familiaris) for up to 32 days. Comparison with existing agents utilized for this condition, octreotide and loperamide, was an additional objective.
Twenty-one (21) male naïve Beagle dogs were randomly assigned to 7 groups and treated as follows:
The test compounds, controls and comparators were prepared at appropriate intervals. All formulations intended for administration to the test animals were stored refrigerated at 2-8° C. Irinotecan was obtained as a sterile solution for intravenous injection containing irinotecan hydrochloride trihydrate at a concentration of 20 mg/mL, ready to use. The irinotecan formulation for dosing the animals (0.5 mg/mL) in Group 1 (Cycles 1 and 2 only) was achieved by dilution of 20 mg/mL formulation with 5% dextrose for injection, USP. […]
A total of 21 males and 2 spare males were obtained from a commercial supplier (for example Marshall BioResources, North Rose, N.Y.) with ages 5 to 7 months old at onset of treatment and weights 6-9 kg at onset of treatment. […] Temperature and relative humidity were monitored continuously and recorded 4 times daily. […]

For `CC(C)[C@H]1NC(=O)[C@@H](Cc2cccc(C(F)(F)F)c2)NCCOc2ccccc2CCCNC(=O)[C@H](CN(C)C)NC1=O` [Compound 502], the “Papp A to B” value ([1]; 10 μM, apical to basolateral, 60 min, 37° C.) was 5 cm/sec × 10^−6, the “Papp B to A” value ([1]; 10 μM, basolateral to apical, 60 min, 37° C.) was 11 cm/sec × 10^−6 and the “B to A/A to B” value ([1]; ratio of Papp) was 2.

In the case of `CCC[C@@H]1NC(=O)[C@@H](C(C)C)NC(=O)[C@@H](Cc2ccc(O)c(Cl)c2)N[C@@H](C)COc2ccccc2CCCNC1=O` [Compound 552], the “efficacy in the treatment of irinotecan-induced CID” value ([2]; intravenous infusion, versus the current standard of care (octreotide, loperamide)) was “superior efficacy” and the “onset and duration of action in irinotecan-induced CID” value ([2]; versus the current standard of care) was “quicker onset and longer duration of action”.
